Here are results for 8 compounds from US20240109917A1 (ACTELION PHARMACEUTICALS LTD, priority 2020, published 2024).

The assay deals with His6-TEV-PDGFRβ (557-1016) (Homo sapiens (Human), UniProt P09619). Nature of the assay: PDGFRβ HTRF Assay. It counts as biochemical. The conditions noted are these: read-out: PDGFR HTRF IC50. A digest of the protocol:
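Human PDGFRβ (557-1016) pre-incubated with compound for 30 min at RT in pH 7.5 HEPES/MgCl2/EGTA/Brij-35/DTT buffer. Reaction started with ATP and TK-biotin peptide, run 3 h at RT, then quenched with EDTA-containing Eu-cryptate antibody/streptavidin-XL665. HTRF 665/620 nm ratio read after 60 min; percent inhibition relative to DMSO and 10 μM imatinib controls.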
(Time-resolved FRET reads energy transfer from a long-lived donor to a nearby acceptor.)

Sequence of His6-TEV-PDGFRβ (557-1016) (P09619 557-1016): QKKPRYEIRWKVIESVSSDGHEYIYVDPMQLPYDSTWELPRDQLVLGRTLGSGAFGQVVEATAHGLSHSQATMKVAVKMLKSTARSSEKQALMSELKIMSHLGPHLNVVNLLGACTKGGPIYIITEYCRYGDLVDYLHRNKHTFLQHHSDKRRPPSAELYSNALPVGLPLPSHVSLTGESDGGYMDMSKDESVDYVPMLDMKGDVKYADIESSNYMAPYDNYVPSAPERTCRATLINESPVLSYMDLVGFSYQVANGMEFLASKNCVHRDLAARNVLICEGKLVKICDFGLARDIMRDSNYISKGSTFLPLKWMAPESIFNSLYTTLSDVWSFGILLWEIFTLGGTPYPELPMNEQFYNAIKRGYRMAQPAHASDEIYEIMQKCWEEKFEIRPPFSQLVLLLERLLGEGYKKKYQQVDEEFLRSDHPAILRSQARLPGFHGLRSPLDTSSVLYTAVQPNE

As usually defined, the IC50 is the concentration that gives 50% inhibition. For `Cc1ncc(NC(=O)OCCN2CCCC2)cc1NC(=O)c1cnn2cc(-c3cnn(C)c3)sc12` [Example 246, 2-(pyrrolidin-1-yl)ethyl (6-methyl-5-(2-(1-methyl-1H-pyrazol-4-yl)pyrazolo[5,1-b]thiazole-7-carboxamido)pyridin-3-yl)carbamate], the half-inhibitory concentration (IC50) is 1400 pM.

As for `Cc1ncc(NC(=O)OCCN2CCCC2(C)C)cc1NC(=O)c1cnn2cc(-c3cnn(C)c3)sc12` [Example 247, 2-(2,2-dimethylpyrrolidin-1-yl)ethyl (6-methyl-5-(2-(1-methyl-1H-pyrazol-4-yl)pyrazolo[5,1-b]thiazole-7-carboxamido)pyridin-3-yl)carbamate], the half-maximal inhibitory concentration (IC50) turned out to be 600 pM.

Regarding `Cc1ncc(NC(=O)OCC(C)N2CCCC2)cc1NC(=O)c1cnn2cc(-c3cnn(C)c3)sc12` (centres unmarked) [Example 248, 2-(pyrrolidin-1-yl)propyl (6-methyl-5-(2-(1-methyl-1H-pyrazol-4-yl)pyrazolo[5,1-b]thiazole-7-carboxamido)pyridin-3-yl)carbamate], the half-inhibitory concentration (IC50) worked out at 400 pM.

With `Cc1ncc(NC(=O)OCC(C)(C)N2CCCC2)cc1NC(=O)c1cnn2cc(-c3cnn(C)c3)sc12` [Example 249, 2-methyl-2-(pyrrolidin-1-yl)propyl (6-methyl-5-(2-(1-methyl-1H-pyrazol-4-yl)pyrazolo[5,1-b]thiazole-7-carboxamido)pyridin-3-yl)carbamate], the half-maximal inhibitory concentration (IC50) is 500 pM.

For the compound `Cc1ncc(NC(=O)OCCN2CC3CCC2C3)cc1NC(=O)c1cnn2cc(-c3cnn(C)c3)sc12` (centres unmarked) [Example 250, 2-(2-azabicyclo[2.2.1]heptan-2-yl)ethyl (6-methyl-5-(2-(1-methyl-1H-pyrazol-4-yl)pyrazolo[5,1-b]thiazole-7-carboxamido)pyridin-3-yl)carbamate], the 50% inhibitory concentration (IC50) turned out to be 1400 pM.

As to `Cc1ncc(NC(=O)OCCN(C)C2CCCCC2)cc1NC(=O)c1cnn2cc(-c3cnn(C)c3)sc12` [Example 251, 2-(cyclohexyl(methyl)amino)ethyl (6-methyl-5-(2-(1-methyl-1H-pyrazol-4-yl)pyrazolo[5,1-b]thiazole-7-carboxamido)pyridin-3-yl)carbamate], the 50% inhibitory concentration (IC50) amounted to 1500 pM.

Take `Cc1ncc(NC(=O)OC2CN(C(C)(C)C)C2)cc1NC(=O)c1cnn2cc(-c3cnn(C)c3)sc12` [Example 252, 1-(tert-butyl)azetidin-3-yl (6-methyl-5-(2-(1-methyl-1H-pyrazol-4-yl)pyrazolo[5,1-b]thiazole-7-carboxamido)pyridin-3-yl)carbamate]: the IC50 stood at 1100 pM.

As for `COc1ncccc1-c1cn2ncc(C(=O)Nc3cc(NC(=O)OC[C@@H]4CCCN4C)cnc3C)c2s1` [Example 253, (S)-(1-methylpyrrolidin-2-yl)methyl (5-(2-(2-methoxypyridin-3-yl)pyrazolo[5,1-b]thiazole-7-carboxamido)-6-methylpyridin-3-yl)carbamate], the IC50 came out at 200 pM.
